The results in this text go back to the Kinase Knowledgebase extract (Sharma et al. 2016).

The structures appear in SMILES notation.

Experiment [1] concerns the target PIK3CA (human) (UniProt P42336). Description: Inhibition of PIK3CA Kinase Activity.
Experiment [2] shares this target. The experiment in a line: Inhibition of A2780 Cell Proliferation.

PIK3CA (human), sequence (P42336 whole entry, looked up): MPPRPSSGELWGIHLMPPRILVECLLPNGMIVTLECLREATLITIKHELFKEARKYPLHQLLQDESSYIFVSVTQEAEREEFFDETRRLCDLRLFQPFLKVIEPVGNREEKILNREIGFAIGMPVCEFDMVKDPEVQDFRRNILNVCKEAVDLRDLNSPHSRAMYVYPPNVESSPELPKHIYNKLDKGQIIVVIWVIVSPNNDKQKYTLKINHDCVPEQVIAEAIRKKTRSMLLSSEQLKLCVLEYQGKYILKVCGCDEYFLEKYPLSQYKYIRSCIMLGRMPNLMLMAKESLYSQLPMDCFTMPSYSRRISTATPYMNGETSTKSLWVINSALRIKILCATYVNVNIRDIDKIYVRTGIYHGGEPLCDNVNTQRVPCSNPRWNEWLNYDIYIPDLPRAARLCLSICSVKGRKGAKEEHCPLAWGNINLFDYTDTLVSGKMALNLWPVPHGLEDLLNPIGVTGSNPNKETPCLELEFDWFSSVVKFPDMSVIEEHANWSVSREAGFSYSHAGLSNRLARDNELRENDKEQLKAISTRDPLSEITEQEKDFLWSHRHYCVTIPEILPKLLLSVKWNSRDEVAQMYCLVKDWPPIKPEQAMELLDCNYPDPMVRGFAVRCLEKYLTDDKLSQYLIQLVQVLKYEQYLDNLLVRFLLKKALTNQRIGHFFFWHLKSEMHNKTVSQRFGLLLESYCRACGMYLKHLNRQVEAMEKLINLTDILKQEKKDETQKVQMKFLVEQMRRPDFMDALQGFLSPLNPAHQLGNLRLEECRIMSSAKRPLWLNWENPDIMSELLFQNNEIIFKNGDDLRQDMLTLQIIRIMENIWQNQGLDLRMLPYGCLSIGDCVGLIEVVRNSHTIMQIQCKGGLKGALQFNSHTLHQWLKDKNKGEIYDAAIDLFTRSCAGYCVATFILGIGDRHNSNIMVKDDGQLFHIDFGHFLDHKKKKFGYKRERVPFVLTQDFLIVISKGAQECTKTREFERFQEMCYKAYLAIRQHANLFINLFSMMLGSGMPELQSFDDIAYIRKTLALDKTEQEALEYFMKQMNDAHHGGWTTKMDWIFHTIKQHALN

Usually IC50 stands for the midpoint of a concentration-inhibition curve. Low values mean greater potency in that assay, high ones weaker potency in that assay. Usually EC50 stands for the concentration giving half of the maximal effect. Low readings indicate greater potency, high ones weaker potency. Regarding `CC(=O)Nc1cn2cc(-c3cnc(N)c(OCC4CCN(C)CC4)n3)ccc2n1`, the IC50 in experiment [1] is < 1000 nM. For the same compound, the EC50 in experiment [2] is < 10000 nM.

As for `CCC(=O)Nc1cn2nc(-c3cnc(N)c(C(F)(F)F)c3)ccc2n1`, the 50% inhibitory concentration (IC50) in experiment [1] is < 1000 nM. Further, the EC50 in experiment [2] was < 1000 nM.

For the compound `CC(=O)Nc1cn2cc(-c3cnc(N)c(C(=O)N4CCNCC4)c3)ccc2n1`, the IC50 in experiment [1] was < 1000 nM. Also, in experiment [2], the concentration giving a half-maximal response (EC50) was < 25000 nM.

Turning to `COc1c(-c2cnc(N)c(C(F)(F)F)c2)ccc2nc(NC(=O)C(F)(F)F)cn12`, in experiment [1], the half-inhibitory concentration (IC50) is < 25000 nM. In addition, the half-maximal effective concentration (EC50) in experiment [2] is < 25000 nM.

`Nc1ncc(-c2ccc3nc(NC(=O)N4CCC[C@H]4CO)cn3c2)cc1C(F)(F)F`: in experiment [1], the IC50 was < 1000 nM. Further, the 50% effective concentration (EC50) in experiment [2] was < 10000 nM.

As for `CC(=O)Nc1cn2nc(-c3cnc(N)c(C(=O)O)c3)ccc2n1`, in experiment [1], the IC50 was < 1000 nM. Moreover, the EC50 in experiment [2] is < 25000 nM.

In the case of `CC(=O)Nc1cn2cc(-c3cnc(N)c(C=NOC(C)(C)C)c3)ccc2n1`, the half-maximal inhibitory concentration (IC50) in experiment [1] is < 1000 nM. In addition, in experiment [2], the concentration for a half-maximal effect (EC50) is < 25000 nM.

Take `NCC(=O)Nc1cn2nc(-c3cnc(N)c(C(F)(F)F)c3)ccc2n1`: the half-inhibitory concentration (IC50) in experiment [1] was < 1000 nM. In addition, the half-maximal effective concentration (EC50) in experiment [2] was < 1000 nM.

On to `Nc1ncc(-c2ccc3nc(NC(=O)[C@@H]4CCCN4)cn3n2)cc1C(F)(F)F`, for which the IC50 in experiment [1] was < 1000 nM. Also, the EC50 in experiment [2] was < 10000 nM.

With `CC(=O)Nc1cn2cc(-c3cnc(N)c(-c4ccc(C(F)(F)F)cc4)c3)ccc2n1`, the half-maximal inhibitory concentration (IC50) in experiment [1] is < 1000 nM. The EC50 in experiment [2] was < 1000 nM.

With `COc1cc(-c2ccc3nc(NC(C)=O)cn3n2)c(C)nc1N`, the IC50 in experiment [1] was < 10000 nM. Also, the EC50 in experiment [2] is < 25000 nM.

Take `COC(=O)CCCC(=O)Nc1cn2nc(-c3cnc(N)c(C(F)(F)F)c3)ccc2n1`: the IC50 in experiment [1] is < 1000 nM. In experiment [2], the EC50 was < 10000 nM.

For the compound `CCCNc1ccc(-c2ccc3nc(NC(C)=O)sc3c2)cn1`, in experiment [1], the IC50 was < 1000 nM. Besides, in experiment [2], the EC50 was < 25000 nM.

As to `CCN1CCN(CCCC(=O)Nc2cn3cc(-c4cnc(N)c(C(F)(F)F)c4)ccc3n2)CC1`, in experiment [1], the IC50 is < 1000 nM. Further, the EC50 in experiment [2] is < 10000 nM.

On to `CCN(CC)CCOc1cc(-c2ccc3nc(NC(C)=O)cn3c2)cnc1N`, for which the IC50 in experiment [1] was < 10000 nM. Besides, in experiment [2], the EC50 was < 25000 nM.

On to `CC(=O)Nc1cn2cc(-c3cnc(N)c(-c4ccccc4)c3)ccc2n1`, for which, in experiment [1], the concentration for half-maximal inhibition (IC50) was < 1000 nM. Also, the EC50 in experiment [2] is < 10000 nM.

Consider `CC(C)(C)OC(=O)NCC(=O)Nc1cn2nc(-c3cnc(N)c(C(F)(F)F)c3)ccc2n1`, for which the half-inhibitory concentration (IC50) in experiment [1] is < 1000 nM. For the same compound, the EC50 in experiment [2] is < 10000 nM.

Regarding `CCOCC(=O)Nc1cn2nc(-c3cnc(N)c(C(F)(F)F)c3)ccc2n1`, the 50% inhibitory concentration (IC50) in experiment [1] is < 1000 nM. In addition, the half-maximal effective concentration (EC50) in experiment [2] is < 10000 nM.

Take `CC(=O)Nc1cn2cc(-c3cnc(N)c(C(F)(F)F)c3)c(F)cc2n1`: the IC50 in experiment [1] was < 1000 nM. Moreover, the half-maximal effective concentration (EC50) in experiment [2] was < 25000 nM.

For the compound `CC(=O)Nc1cn2cc(-c3cnc(N)c(C)c3)ccc2n1`, the IC50 in experiment [1] is < 1000 nM. Moreover, the half-maximal effective concentration (EC50) in experiment [2] is < 10000 nM.

As to `CC(=O)Nc1nc2ccc(-c3cnc(N)c(C(F)(F)F)c3)cn2c1C#CCNC(=O)OC(C)(C)C`, the IC50 in experiment [1] is < 1000 nM. Also, in experiment [2], the 50% effective concentration (EC50) was < 10000 nM.

On to `Nc1ncc(-c2ccc3nc(NC(=O)c4cccc(F)c4)cn3c2)cc1C(F)(F)F`, for which, in experiment [1], the half-maximal inhibitory concentration (IC50) was < 1000 nM. Moreover, the concentration for a half-maximal effect (EC50) in experiment [2] is < 10000 nM.

Take `CC(=O)Nc1cn2cc(-c3cnc(N)c(Cl)c3)ccc2n1`: the 50% inhibitory concentration (IC50) in experiment [1] was < 1000 nM. In addition, the concentration for a half-maximal effect (EC50) in experiment [2] is < 10000 nM.

As to `NCCCC(=O)Nc1cn2nc(-c3cnc(N)c(C(F)(F)F)c3)ccc2n1`, the 50% inhibitory concentration (IC50) in experiment [1] is < 1000 nM. The 50% effective concentration (EC50) in experiment [2] was < 25000 nM.

In the case of `CC(C)(C)OC(=O)N1CC[C@@H](OCC(=O)Nc2cn3nc(-c4cnc(N)c(C(F)(F)F)c4)ccc3n2)C1`, the 50% inhibitory concentration (IC50) in experiment [1] is < 1000 nM. Moreover, in experiment [2], the EC50 was < 1000 nM.

In the case of `CC(=O)Nc1nc2ccc(-c3cnc(N)c(C(F)(F)F)c3)cn2c1C#CCN1CCOCC1`, the IC50 in experiment [1] is < 1000 nM. Further, the concentration giving a half-maximal response (EC50) in experiment [2] is < 10000 nM.

Turning to `CC(=O)Nc1nc2cc(F)c(-c3cnc(N)c(C(F)(F)F)c3)cc2s1`, the half-maximal inhibitory concentration (IC50) in experiment [1] was < 1000 nM. Also, the EC50 in experiment [2] is < 25000 nM.

Consider `Nc1ncc(-c2ccc3nc(NC(=O)C4CNC4)cn3n2)cc1Cl`, for which the IC50 in experiment [1] is < 1000 nM. For the same compound, the half-maximal effective concentration (EC50) in experiment [2] is < 25000 nM.

Take `CC(=O)Nc1cn2cc(-c3cnc(N)c(Oc4ccc(N5CCN(C(C)=O)CC5)cc4)n3)ccc2n1`: in experiment [1], the IC50 is < 1000 nM. Moreover, in experiment [2], the EC50 is < 10000 nM.

Consider `COc1ccccc1-c1cc(-c2ccc3nc(NC(C)=O)cn3n2)cnc1N`, for which the concentration for half-maximal inhibition (IC50) in experiment [1] was < 1000 nM. The EC50 in experiment [2] was < 10000 nM.

On to `CC(=O)Nc1nc2ccc(-c3cnc(N)c(C(F)(F)F)c3)c(C)c2s1`, for which the IC50 in experiment [1] was < 1000 nM. For the same compound, the concentration giving a half-maximal response (EC50) in experiment [2] is < 10000 nM.

Turning to `CC(=O)Nc1cn2cc(-c3cnc(N)c(OC4CNC4)n3)ccc2n1`, the IC50 in experiment [1] is < 1000 nM. The EC50 in experiment [2] is < 25000 nM.

As for `CC(=O)Nc1cn2cc(-c3cnc(N)c(C=O)c3)ccc2n1`, in experiment [1], the concentration for half-maximal inhibition (IC50) was < 1000 nM. The 50% effective concentration (EC50) in experiment [2] was < 10000 nM.

As for `NC(=O)Nc1cn2cc(-c3cnc(N)c(C(F)(F)F)c3)ccc2n1`, the 50% inhibitory concentration (IC50) in experiment [1] is < 1000 nM. Besides, the EC50 in experiment [2] is < 10000 nM.
